# Measured values: article PMC12309613 (Translational Oncology, 2025)
# Target: T1, PYCR1 (recombinant human His-PYCR1) (Homo sapiens, UniProt P32322)
# T1 sequence (P32322 2-319): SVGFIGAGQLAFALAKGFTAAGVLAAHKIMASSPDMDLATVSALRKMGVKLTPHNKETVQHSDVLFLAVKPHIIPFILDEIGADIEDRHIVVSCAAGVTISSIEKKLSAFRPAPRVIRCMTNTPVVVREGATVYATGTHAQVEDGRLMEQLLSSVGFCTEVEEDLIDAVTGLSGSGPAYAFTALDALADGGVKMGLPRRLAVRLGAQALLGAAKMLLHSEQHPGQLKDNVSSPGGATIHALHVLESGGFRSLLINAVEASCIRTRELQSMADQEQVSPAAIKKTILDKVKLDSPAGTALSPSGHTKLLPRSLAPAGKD
# Experiment: surface plasmon resonance
# Assay type: binding
smiles,measurement,value
Nc1ncnc2c([C@@H]3O[C@H](CO)[C@@H](O)[C@H]3O)c[nH]c12 [9-DAA],Kd,7.89 µM
